Where a name gives a salt, the structure may show the parent alone.

The subject of one assay is male Swiss Webster mice. Description: Warm-water tail immersion assay, agonism (single dose screen and potency). It counts as in vivo, mouse. Particulars: for ED50: Mus musculus, sc, read-out: potency ED50 [95% CI] mg/kg, s.c., 20 min prior to tail withdrawal latency measurement, male Swiss Webster mice; for percent MPE: withdrawal latency 20 min after administration.
Assay [1] addresses T1, KOR (Mus musculus, UniProt P33534).
T1 construct: expressed in transfected cells; membrane homogenate
Description: [35S]-GTPγS functional assay, KOR. It counts as biochemical. Particulars: for EC50: mKOR-CHO membranes; for Emax: percent of U50,488 full agonist control. In general terms: Binding of GTPγS marks nucleotide exchange on a G protein.

Assay [2] concerns the target T2, DOR (Homo sapiens, UniProt P41143).
T2 construct: expressed in transfected cells; membrane homogenate
Description: [35S]-GTPγS functional assay, DOR. It counts as biochemical. To be noted: for EC50: hDOR-CHO membranes; for Emax: percent of SNC80 full agonist control.

Assay [3] has as its target T1, KOR. In words: Competitive radioligand binding assay, KOR. To be noted: for selectivity ratio δ/κ / selectivity ratio μ/κ: ratio of Ki values; for radioligand binding affinity (Ki, nM) KOR: [3H]diprenorphine, mKOR-CHO membranes.
Assay [4] deals with T3, MOR (Mus musculus, UniProt P42866). Description: Competitive radioligand binding assay, MOR. Also on record: expressed in transfected cells; membrane homogenate. To be noted: for radioligand binding affinity (Ki, nM) MOR: [3H]naloxone, mMOR-CHO membranes.
For assay [5], the target named is T3, MOR. In words: [35S]-GTPγS functional assay, MOR. It counts as biochemical. Further details: expressed in transfected cells; membrane homogenate. To be noted: for EC50: mMOR-CHO membranes; for Emax: read-out: [35S]-GTPγS functional activity MOR Emax (%).
Assay [6] deals with T2, DOR. In words: Competitive radioligand binding assay, DOR.

One may read the EC50 as the midpoint of the concentration-response curve. Lower therefore signals higher potency in that assay. The Emax is the greatest response seen or fitted, relative to the assay's reference. As a reminder, the Ki is a dissociation constant, usually derived from enzyme kinetics or from competition with a known ligand. Read a low Ki as tighter binding. `O=C(CCc1ccco1)N[C@@H]1CC[C@@]2(O)[C@H]3Cc4cccc5c4[C@@]2(CCN3CC2CC2)[C@H]1O5` [Compound 12, 17-Cyclopropylmethyl-4,5α-epoxy-6β-[3′-(furan-2″-yl)propanamido]-14β-hydroxymorphinan Hydrochloride]: the “antinociception compared to the vehicle group” value with male Swiss Webster mice (single dose 10 mg/kg s.c., 20 min) is “lack of significant antinociceptive effect”. For the same molecule, the EC50 on KOR [1] is 368 ± 31.8 nM; at DOR [2] it was 2400 ± 200 nM; on MOR [5] it was 104 ± 24.2 nM. The Emax on KOR [1] amounted to 86.83 ± 0.69%; on DOR [2], 71 ± 6.1%; at MOR [5], 10.8 ± 1.13%. Moreover, the Ki on KOR [3] was found to be 23.6 ± 3.79 nM; at MOR [4] it was 27.5 ± 2.9 nM; at DOR [6], 800 ± 96.7 nM. The “selectivity ratio δ/κ” value on KOR [3] amounted to 34. On KOR [3], the “selectivity ratio μ/κ” value is on record as 1.
Take `CN(C(=O)CCc1ccco1)[C@H]1CC[C@@]2(O)[C@H]3Cc4ccc(O)c5c4[C@@]2(CCN3CC2CC2)[C@H]1O5` [Compound 13, 17-Cyclopropylmethyl-3,14β-dihydroxy-4,5α-epoxy-6α-[3′-(furan-2″-yl)-N-methylpropanamido]morphinan Hydrochloride]: the ED50 with male Swiss Webster mice was 0.123 mg/kg. Moreover, the “percent MPE” value in the assay on male Swiss Webster mice (single dose 10 mg/kg s.c.) is not below 80%. Further, the values for the EC50 on KOR [1], on DOR [2] and at MOR [5] were 0.04 ± 0.01 nM, 0.66 ± 0.06 nM and 0.31 ± 0.04 nM, respectively. Moreover, the Emax at KOR [1] amounted to 101 ± 2.5%; on DOR [2], 63.1 ± 2.6%; on MOR [5], 15.3 ± 1.08%. Further, the Ki on KOR [3] is 0.12 ± 0.02 nM; on MOR [4], 0.15 ± 0.01 nM; on DOR [6] it was 0.37 ± 0.07 nM. Also, the “radioligand binding affinity (Ki, nM) KOR” value at KOR [3] is listed as “subnanomolar”. Moreover, the “radioligand binding affinity (Ki, nM) MOR” value on MOR [4] was “subnanomolar”. For the same molecule, the “radioligand binding affinity (Ki, nM) DOR” value on DOR [6] ([3H]diprenorphine, hDOR-CHO membranes) is on record as “subnanomolar”.
Consider `CN(C(=O)CCc1ccco1)[C@@H]1CC[C@@]2(O)[C@H]3Cc4ccc(O)c5c4[C@@]2(CCN3CC2CC2)[C@H]1O5` [Compound 15, 17-Cyclopropylmethyl-3,14β-dihydroxy-4,5α-epoxy-6β-[3′-(furan-2″-yl)-N-methylpropanamido]morphinan Hydrochloride], for which the ED50 in the assay on male Swiss Webster mice turned out to be 0.251 mg/kg. In the assay with male Swiss Webster mice (single dose 10 mg/kg s.c.), the “percent MPE” value was not below 80%. Further, the EC50 was 1.48 ± 0.17 nM on KOR [1], 16.9 ± 2.57 nM at DOR [2] and 3.58 ± 0.59 nM on MOR [5]. For the same molecule, the Emax at KOR [1] was 100.7 ± 1%; on DOR [2], 38.6 ± 1.37%; at MOR [5], 15.3 ± 0.5%. Also, the Ki turned out to be 0.32 ± 0.03 nM on KOR [3], 0.66 ± 0.05 nM on MOR [4] and 7.32 ± 1.08 nM on DOR [6]. Further, on KOR [3], the “radioligand binding affinity (Ki, nM) KOR” value is “subnanomolar”. Further, the “radioligand binding affinity (Ki, nM) MOR” value at MOR [4] is “subnanomolar”.
As for `CN(C(=O)/C=C/c1ccco1)[C@H]1CC[C@@]2(O)[C@H]3Cc4cccc5c4[C@@]2(CCN3CC2CC2)[C@H]1O5` [Compound 17, 17-Cyclopropylmethyl-4,5α-epoxy-6α-[(2E)-3′-(furan-2″-yl)N-methylprop-2-enamido]-14β-hydroxymorphinan Hydrochloride], the ED50 in the assay on male Swiss Webster mice is 7.8 mg/kg. Besides, the “percent MPE” value in the assay on male Swiss Webster mice (single dose 10 mg/kg s.c.) is recorded as not below 80%. For the same molecule, at KOR [1], it took 5.97 ± 0.42 nM to reach a half-maximal effect (EC50) and the Emax stood at 110 ± 7.9%. The molecule further displayed an EC50 on DOR [2] of 440 ± 32.2 nM. On KOR [3], the inhibition constant Ki was 0.62 ± 0.04 nM; the “radioligand binding affinity (Ki, nM) KOR” value is recorded as “subnanomolar”; the “selectivity ratio δ/κ” value is 110; the “selectivity ratio μ/κ” value was 27. In addition, affinity at MOR [4] was put at a Ki of 16.8 ± 1.34 nM. For the same molecule, on MOR [5], the EC50 is 125 ± 17.1 nM and the Emax is 22.9 ± 2.01%. In addition, on DOR [6], the Ki came out at 68.4 ± 11.2 nM.

For the origin of these results see PMC11181328 (Journal of Medicinal Chemistry, 2024).
